Values quoted from earlier work in patent US9120722B1, “Optically active valine complex and a method for producing the same” (Wellman Biosciences Co. Ltd., priority 2014, dated 2015).

Conditions: for Solubility in water of the sulfonic acid salt with L-valine: salts with L-valine, prior art U.S. Pat. No. 5,689,001 and No. 6,072,083

| Structure (SMILES) | Solubility (aqueous solution) (room temperature, stated as known) | Solubility in water of the sulfonic acid salt with L-valine [%] |
| --- | --- | --- |
| CC(C)[C@@H](N)C(=O)O [D-valine] | 8-10% |  |
| CCc1ccc(S(=O)(=O)O)cc1 [p-ethylbenzene sulfonic acid] |  | 14.5 |
| CC(C)c1ccc(S(=O)(=O)O)cc1 [p-isopropylbenzene sulfonic acid] |  | 7.8 |
